Literature values, collected in patent US20090220618A1, “PHARMACEUTICAL FORMULATIONS COMPRISING POLYANIONIC MATERIALS AND SOURCE OF HYDROGEN PEROXIDE” (priority 2008, published 2009).

Columns and labels:
[1] = at 25° C.
[2] = test system: sensitive tissues of the eye

Row | Compound | pKa [1] | concentration causing apoptosis [2] | concentration causing growth arrest [2] | concentrations causing necrosis [2]
1 | O=S(=O)(O)CC(O)CN(CCO)CCO (stereo not drawn) [DIPSO] | 7.52 | – | – | –
2 | benzalkonium chloride [BAK] | – | 0.01% | 0.00001% | 0.05-0.1%
3 | O=S(=O)(O)CCCCNC(CO)(CO)CO [TABS, N-tris(hydroxymethyl)methyl-4-aminobutanesulfonic acid] | 8.9 | – | – | –
4 | CC(C)(CO)NCC(O)CS(=O)(=O)O (stereo not drawn) [AMP SO] | 9.0 | – | – | –
